Tests used:
[1] = test system: Human retinal pigment epithelial cell line (ARPE-19); experiment: Cytoprotective activity against blue light-induced apoptosis of A2E-accumulated ARPE-19 cells (MTT assay); type: cell-based; settings: A2E-accumulated ARPE-19 exposed to blue light; for increase of cell viability: compared to the negative control
Text: The retinal pigment cell line used in experiments and analyses of the present invention arose from a retinal pigment epithelial cell line (ARPE-19: ATCC no. CRL-2302) purchased from the ATCC (American Type Culture Collection, Manassas Va.), and was maintained by passage as described in document (Sparrow, J. R. et al., A2E, alipofuscin fluorophore, in human retinal pigmented epithelial cells in culture. Invest Ophthalmol Vis Sci 1999, 40(12), 2988-95).
Briefly, the retinal pigment cell line was cultured in Dulbecco's modified Eagle's medium (DMEM, Gibco, USA) supplemented with antibiotics (Gibco, USA) including 100 U/ml penicillin, […] streptomycin, and amphotericin B, and 10% fetal bovine serum (Hyclone, USA) at 37° C. under 5% CO2 conditions. The cells were allowed to adhere to the bottom of the culture plate, and cultured, with passage by treatment with a mixture of 1:4 trypsin:10% fetal bovine serum (Gibco, USA)-supplemented medium upon confluence.
For use in experiments, the cells were seeded at a density of 5×10^4 cells/well into 6-well plates.
Cytoprotective Activity of S-Allyl-Cysteine Against Blue Light-Induced Apoptosis of A2E-Accumulated Human Retinal Pigment Epithelial Cell Line CARPE-19)
Human retinal pigment cell line (ARPE-19) was seeded at a density of 5×10^4 cells/well into 96-well plates, and incubated with 20 μM A2E for 7 days to accumulate A2E. Then, the cells were treated with a negative control, a positive control (lutein: 20 μM), or predetermined concentrations of S-allyl-cysteine (1, 10, 100 μM) before exposure to blue light as described above.
Thereafter, cell viability was measured using 3-(4,5-dimethylthiazol-2-yl)-2,5-diphenyltetrazoliumbromide (MTT) assay. An MTT assay is a standard colorimetric assay for assessing cell viability, usually in a lab. Generally, viable cells are counted using a hemocytometer, or by measuring optical density; however, this method requires too much time and labor for large numbers of cells, and is apt to yield inaccurate results. As an alternative, the MTT assay is designed such that the yellow substrate tetrazolium MTT is reduced by metabolically active cells, in part by the action of mitochondrial dehydrogenase enzymes, into purple formazan that can be solubilized and quantified by spectrophotometric means. This assay can analyze the proliferation behavior of large numbers of cells rapidly and accurately. […] More viable cells produce a greater amount of formazan crystals, recoding higher absorbance.
According to the MTT assay (Sigma-Aldrich Inc., St. Louis, Mo., U.S.A.), DMEM containing 0.5 mg/ml MTT was added to each well and incubated at 37° C. for 2 hrs in an incubator under dark conditions. […]

[2] = Suppressive activity against blue light-induced oxidation of A2E (cell-free, absorbance); settings: 20 μM A2E in PBS, blue light ca. 430 nm, compared to non-treated
Experimental: Assay of S-Allyl-Cysteine for Suppressive Activity Against Blue Light-Induced Oxidation of A2E S-Allyl-cysteine was assayed for the ability to suppress the blue light-induced oxidation of A2E. First, 100 μM A2E was diluted to 20 μM in phosphate buffered saline (PBS), and 200 μl of the dilution was placed in each well of 96-well plates. Then, a negative control, a positive control (lutein 20 μM), or predetermined concentrations of S-allyl-cysteine (1, 10, 100 μM) were added to the dilution, and mixed by pipetting. An LED lamp emitting blue light with a central wavelength of ca. 430 nm was operated above the microplates to induce photo-oxidation until the A2E absorbance was reduced by half. Absorbance was read on an ELISA before and after the induction of photo-oxidation. The measurements were applied to an A2E standard curve to obtain concentrations of A2E, and the difference in concentration before and after exposure to blue light was used to obtain the concentration of oxidized A2E. From the data, the inhibitory activity of the sample against A2E photo-oxidation was calculated according to the following Mathematical Formula 1. In Formula 1, Abs. means absorbance. [formula] A=Abs. of A2E−Abs. of A2E+blue light B={Abs. of A2E+sample)−Abs. of sample}−{(Abs. of A2E+sample+blue light)−(Abs. of sample−Abs. of sample+blue light)} In order to evaluate the inhibitory activity of S-allyl-L-cysteine against A2E photooxidation, concentrations of oxidized A2E were measured after exposure to blue radiation as described in Experimental Example 1, and the results are depicted in FIG. 1.

| Structure (SMILES) | cell viability versus negative control (result in words) ([1]; lutein 20 μM) | decrease of concentration of oxidized A2E ([2]; 1 μM S-allyl-cysteine) [%] | decrease of concentration of oxidized A2E ([2]; 10 μM S-allyl-cysteine) [%] | decrease of concentration of oxidized A2E ([2]; 100 μM S-allyl-cysteine) [%] | increase of cell viability ([1]; 1 μM) [%] | increase of cell viability ([1]; 10 μM) [%] | increase of cell viability ([1]; 100 μM) [%] |
| --- | --- | --- | --- | --- | --- | --- | --- |
| CC1=C[C@H](O)CC(C)(C)[C@H]1/C=C/C(C)=C/C=C/C(C)=C/C=C/C=C(C)/C=C/C=C(C)/C=C/C1=C(C)C[C@@H](O)CC1(C)C [positive control, lutein, reference compound] | significant difference in cell viability | – | – | – | – | – | – |
| C=CCSC[C@H](N)C(=O)O [S-allyl-cysteine, S-allyl-L-cysteine] | – | 20 | 32 | 41 | 63 | 134 | 167 |

Reference: patent US9326960B2, “Composition for preventing or treating eye diseases, containing S-allyl-L-cysteine as active ingredient, and pharmaceutical formulation containing same” (PHARMAKING CO., LTD., priority 2012, dated 2016)
